Assay results taken from ChEMBL document CHEMBL5291721, “A preclinical secondary pharmacology resource illuminates target-adverse drug reaction associations of marketed drugs” (Nat Commun, 2023).

Legend:
[1] = target: Voltage-gated inwardly rectifying potassium channel KCNH2 (Homo sapiens, UniProt Q12809); assay type: functional
[2] = target: Vasopressin V1a receptor (Homo sapiens, UniProt P37288)
[3] = target: T1, Muscarinic acetylcholine receptor M2 (Homo sapiens, UniProt P08172); assay type: functional, cell-based
T1 sequence (P08172 whole entry): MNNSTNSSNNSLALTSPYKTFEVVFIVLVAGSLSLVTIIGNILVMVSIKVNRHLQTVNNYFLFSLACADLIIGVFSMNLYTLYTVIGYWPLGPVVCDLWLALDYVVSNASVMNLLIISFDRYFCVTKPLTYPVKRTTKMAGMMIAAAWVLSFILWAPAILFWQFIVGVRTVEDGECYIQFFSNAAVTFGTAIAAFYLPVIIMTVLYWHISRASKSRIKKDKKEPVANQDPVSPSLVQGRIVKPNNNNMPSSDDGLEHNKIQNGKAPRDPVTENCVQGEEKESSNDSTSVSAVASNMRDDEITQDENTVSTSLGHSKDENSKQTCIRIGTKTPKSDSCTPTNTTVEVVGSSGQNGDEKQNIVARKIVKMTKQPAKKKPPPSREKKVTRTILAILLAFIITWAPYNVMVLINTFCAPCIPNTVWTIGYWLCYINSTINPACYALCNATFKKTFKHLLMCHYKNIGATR

[4] = target: T2, Alpha-2A adrenergic receptor (Homo sapiens, UniProt P08913)
T2 sequence (P08913 whole entry): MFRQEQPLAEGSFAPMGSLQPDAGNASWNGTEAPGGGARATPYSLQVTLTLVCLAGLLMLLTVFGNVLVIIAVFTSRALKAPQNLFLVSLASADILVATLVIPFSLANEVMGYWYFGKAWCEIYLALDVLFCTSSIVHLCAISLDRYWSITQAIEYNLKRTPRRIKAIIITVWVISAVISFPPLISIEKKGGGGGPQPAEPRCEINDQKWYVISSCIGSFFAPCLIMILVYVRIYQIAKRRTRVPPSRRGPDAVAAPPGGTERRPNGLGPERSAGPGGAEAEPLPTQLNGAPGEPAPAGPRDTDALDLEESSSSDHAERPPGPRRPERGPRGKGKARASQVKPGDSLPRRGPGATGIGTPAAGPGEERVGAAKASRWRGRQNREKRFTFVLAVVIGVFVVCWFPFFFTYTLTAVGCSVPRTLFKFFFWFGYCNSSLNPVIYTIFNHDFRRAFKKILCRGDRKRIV

[5] = target: T3, Amine oxidase [flavin-containing] A (Homo sapiens, UniProt P21397); assay type: functional
T3 sequence (P21397 whole entry): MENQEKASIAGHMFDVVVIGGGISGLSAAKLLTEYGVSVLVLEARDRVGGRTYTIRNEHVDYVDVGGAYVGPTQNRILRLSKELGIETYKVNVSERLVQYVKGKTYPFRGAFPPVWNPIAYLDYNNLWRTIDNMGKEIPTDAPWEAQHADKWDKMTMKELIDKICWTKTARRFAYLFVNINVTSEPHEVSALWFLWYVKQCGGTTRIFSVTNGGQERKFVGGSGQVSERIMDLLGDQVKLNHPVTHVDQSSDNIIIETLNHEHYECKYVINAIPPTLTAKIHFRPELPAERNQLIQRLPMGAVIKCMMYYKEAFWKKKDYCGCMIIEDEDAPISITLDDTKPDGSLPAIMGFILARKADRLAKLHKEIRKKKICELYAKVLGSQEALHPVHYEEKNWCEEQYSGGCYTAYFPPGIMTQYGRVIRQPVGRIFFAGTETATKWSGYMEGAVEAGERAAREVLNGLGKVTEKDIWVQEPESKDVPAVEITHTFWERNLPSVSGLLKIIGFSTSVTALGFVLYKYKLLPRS

[6] = target: cGMP-inhibited 3',5'-cyclic phosphodiesterase 3A (Homo sapiens, UniProt Q14432); assay type: functional
[7] = target: T4, Thromboxane A2 receptor (Homo sapiens, UniProt P21731); assay type: functional, cell-based
T4 sequence (P21731 whole entry): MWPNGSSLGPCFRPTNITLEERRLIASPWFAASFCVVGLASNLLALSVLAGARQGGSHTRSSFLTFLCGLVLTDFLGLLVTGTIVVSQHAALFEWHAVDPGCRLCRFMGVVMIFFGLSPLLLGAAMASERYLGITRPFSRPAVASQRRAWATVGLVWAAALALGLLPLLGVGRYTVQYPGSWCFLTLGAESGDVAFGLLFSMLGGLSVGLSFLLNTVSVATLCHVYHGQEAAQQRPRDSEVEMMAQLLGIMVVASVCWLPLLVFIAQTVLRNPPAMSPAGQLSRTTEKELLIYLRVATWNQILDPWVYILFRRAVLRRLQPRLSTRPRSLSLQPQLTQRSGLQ

[8] = target: 3',5'-cyclic-AMP phosphodiesterase 4A (Homo sapiens, UniProt P27815); assay type: functional
[9] = target: T5, 5-hydroxytryptamine receptor 1A (Homo sapiens, UniProt P08908)
T5 sequence (P08908 whole entry): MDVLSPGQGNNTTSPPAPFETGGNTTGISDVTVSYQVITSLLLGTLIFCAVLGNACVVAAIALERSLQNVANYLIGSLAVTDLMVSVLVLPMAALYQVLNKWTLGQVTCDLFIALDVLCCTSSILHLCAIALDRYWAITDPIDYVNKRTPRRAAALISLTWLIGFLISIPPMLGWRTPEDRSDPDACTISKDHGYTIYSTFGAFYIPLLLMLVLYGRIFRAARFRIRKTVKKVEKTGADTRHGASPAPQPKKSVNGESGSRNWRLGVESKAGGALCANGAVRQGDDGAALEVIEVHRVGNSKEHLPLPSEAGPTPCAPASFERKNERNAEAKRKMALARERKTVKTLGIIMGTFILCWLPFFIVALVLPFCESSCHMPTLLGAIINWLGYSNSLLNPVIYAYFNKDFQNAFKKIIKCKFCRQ

[10] = target: Prothrombin (Homo sapiens, UniProt P00734); assay type: functional
[11] = target: Histamine H3 receptor (Homo sapiens, UniProt Q9Y5N1)
[12] = target: T4, Thromboxane A2 receptor; assay type: functional, cell-based; remark: listed apart in the source
[13] = target: Acetylcholinesterase (Homo sapiens, UniProt P22303); assay type: functional
[14] = target: Sodium-dependent dopamine transporter (Homo sapiens, UniProt Q01959)
[15] = target: T1, Muscarinic acetylcholine receptor M2
[16] = target: 5-hydroxytryptamine receptor 2B (Homo sapiens, UniProt P41595); assay type: functional, cell-based
Note: assay procedure not described here.

Chain of Voltage-gated inwardly rectifying potassium channel KCNH2 (Q12809 whole entry): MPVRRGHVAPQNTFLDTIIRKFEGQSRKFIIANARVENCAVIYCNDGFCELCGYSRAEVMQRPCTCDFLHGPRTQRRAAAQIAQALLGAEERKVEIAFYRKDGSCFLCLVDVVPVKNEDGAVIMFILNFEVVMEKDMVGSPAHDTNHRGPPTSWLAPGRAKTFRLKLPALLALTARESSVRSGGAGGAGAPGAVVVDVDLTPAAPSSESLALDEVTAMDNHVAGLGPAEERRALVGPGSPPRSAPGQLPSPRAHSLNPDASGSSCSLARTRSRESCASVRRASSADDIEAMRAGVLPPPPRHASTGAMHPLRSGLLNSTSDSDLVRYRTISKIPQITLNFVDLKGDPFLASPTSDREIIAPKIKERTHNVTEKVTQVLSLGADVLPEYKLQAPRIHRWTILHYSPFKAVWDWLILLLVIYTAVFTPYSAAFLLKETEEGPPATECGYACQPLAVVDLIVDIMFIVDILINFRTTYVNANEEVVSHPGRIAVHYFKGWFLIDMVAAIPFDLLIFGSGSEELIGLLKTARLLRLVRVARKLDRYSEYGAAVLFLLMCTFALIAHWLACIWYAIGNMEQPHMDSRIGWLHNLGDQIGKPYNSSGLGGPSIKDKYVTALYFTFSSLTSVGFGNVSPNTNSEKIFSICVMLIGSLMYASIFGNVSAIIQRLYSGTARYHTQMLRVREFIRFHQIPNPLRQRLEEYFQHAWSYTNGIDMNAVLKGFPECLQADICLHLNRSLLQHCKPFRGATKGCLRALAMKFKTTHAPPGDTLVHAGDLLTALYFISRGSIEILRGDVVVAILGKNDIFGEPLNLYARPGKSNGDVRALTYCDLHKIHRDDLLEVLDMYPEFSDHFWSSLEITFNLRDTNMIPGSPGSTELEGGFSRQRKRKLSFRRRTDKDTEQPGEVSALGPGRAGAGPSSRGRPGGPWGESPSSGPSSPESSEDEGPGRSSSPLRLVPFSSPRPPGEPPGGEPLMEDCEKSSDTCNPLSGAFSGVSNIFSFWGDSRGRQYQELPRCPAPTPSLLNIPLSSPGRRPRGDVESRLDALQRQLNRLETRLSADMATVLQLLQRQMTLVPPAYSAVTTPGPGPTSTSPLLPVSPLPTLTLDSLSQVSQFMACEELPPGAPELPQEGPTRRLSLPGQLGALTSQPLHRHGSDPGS
Chain of Vasopressin V1a receptor (P37288 whole entry): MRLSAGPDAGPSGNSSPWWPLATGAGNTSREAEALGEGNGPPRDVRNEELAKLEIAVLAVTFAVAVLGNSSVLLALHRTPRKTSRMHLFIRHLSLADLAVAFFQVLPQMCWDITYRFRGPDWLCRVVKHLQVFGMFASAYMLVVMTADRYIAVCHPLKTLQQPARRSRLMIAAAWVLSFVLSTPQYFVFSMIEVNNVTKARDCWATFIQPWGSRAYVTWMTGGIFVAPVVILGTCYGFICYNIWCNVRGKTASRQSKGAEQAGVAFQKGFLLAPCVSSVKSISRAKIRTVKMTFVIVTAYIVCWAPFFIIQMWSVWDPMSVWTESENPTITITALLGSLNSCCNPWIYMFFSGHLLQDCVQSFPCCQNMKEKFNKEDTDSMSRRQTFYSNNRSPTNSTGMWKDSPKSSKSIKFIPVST
Chain of 3',5'-cyclic-AMP phosphodiesterase 4A (P27815 whole entry): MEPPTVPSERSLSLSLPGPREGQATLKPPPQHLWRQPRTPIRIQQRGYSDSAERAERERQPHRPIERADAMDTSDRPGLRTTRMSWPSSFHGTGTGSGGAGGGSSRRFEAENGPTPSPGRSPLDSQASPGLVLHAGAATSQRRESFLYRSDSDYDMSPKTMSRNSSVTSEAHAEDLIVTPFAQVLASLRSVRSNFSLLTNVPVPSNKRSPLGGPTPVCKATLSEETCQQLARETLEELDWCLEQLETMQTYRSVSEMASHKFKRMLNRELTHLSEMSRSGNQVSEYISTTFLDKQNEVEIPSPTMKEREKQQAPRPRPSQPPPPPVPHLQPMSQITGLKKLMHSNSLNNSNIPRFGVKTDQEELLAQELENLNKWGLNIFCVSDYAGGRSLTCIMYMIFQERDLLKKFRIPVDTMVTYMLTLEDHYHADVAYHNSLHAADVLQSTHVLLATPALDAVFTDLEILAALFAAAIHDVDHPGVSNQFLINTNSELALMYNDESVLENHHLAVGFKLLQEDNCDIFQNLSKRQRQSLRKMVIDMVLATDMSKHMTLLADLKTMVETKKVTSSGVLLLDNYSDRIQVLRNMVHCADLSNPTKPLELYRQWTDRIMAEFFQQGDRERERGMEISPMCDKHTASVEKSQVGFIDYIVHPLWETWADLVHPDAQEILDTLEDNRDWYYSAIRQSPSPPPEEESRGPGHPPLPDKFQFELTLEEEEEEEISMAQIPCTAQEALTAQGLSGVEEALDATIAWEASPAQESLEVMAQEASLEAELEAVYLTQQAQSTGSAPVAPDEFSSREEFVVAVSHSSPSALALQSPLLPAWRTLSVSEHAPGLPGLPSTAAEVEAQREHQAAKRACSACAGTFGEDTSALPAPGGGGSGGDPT
Chain of Histamine H3 receptor (Q9Y5N1 whole entry): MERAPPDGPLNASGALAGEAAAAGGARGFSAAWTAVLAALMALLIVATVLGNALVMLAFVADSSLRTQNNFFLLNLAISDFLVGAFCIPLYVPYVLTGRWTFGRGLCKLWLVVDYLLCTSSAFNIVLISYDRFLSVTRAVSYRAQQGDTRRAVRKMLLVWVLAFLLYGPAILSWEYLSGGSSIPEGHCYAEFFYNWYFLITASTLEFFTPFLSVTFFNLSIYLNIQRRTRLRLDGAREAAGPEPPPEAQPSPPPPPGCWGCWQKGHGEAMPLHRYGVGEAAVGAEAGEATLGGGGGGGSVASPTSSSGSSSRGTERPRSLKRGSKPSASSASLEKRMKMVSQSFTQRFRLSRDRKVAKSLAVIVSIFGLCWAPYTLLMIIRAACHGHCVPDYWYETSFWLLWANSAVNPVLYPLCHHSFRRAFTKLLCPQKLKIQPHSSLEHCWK
Chain of cGMP-inhibited 3',5'-cyclic phosphodiesterase 3A (Q14432 whole entry): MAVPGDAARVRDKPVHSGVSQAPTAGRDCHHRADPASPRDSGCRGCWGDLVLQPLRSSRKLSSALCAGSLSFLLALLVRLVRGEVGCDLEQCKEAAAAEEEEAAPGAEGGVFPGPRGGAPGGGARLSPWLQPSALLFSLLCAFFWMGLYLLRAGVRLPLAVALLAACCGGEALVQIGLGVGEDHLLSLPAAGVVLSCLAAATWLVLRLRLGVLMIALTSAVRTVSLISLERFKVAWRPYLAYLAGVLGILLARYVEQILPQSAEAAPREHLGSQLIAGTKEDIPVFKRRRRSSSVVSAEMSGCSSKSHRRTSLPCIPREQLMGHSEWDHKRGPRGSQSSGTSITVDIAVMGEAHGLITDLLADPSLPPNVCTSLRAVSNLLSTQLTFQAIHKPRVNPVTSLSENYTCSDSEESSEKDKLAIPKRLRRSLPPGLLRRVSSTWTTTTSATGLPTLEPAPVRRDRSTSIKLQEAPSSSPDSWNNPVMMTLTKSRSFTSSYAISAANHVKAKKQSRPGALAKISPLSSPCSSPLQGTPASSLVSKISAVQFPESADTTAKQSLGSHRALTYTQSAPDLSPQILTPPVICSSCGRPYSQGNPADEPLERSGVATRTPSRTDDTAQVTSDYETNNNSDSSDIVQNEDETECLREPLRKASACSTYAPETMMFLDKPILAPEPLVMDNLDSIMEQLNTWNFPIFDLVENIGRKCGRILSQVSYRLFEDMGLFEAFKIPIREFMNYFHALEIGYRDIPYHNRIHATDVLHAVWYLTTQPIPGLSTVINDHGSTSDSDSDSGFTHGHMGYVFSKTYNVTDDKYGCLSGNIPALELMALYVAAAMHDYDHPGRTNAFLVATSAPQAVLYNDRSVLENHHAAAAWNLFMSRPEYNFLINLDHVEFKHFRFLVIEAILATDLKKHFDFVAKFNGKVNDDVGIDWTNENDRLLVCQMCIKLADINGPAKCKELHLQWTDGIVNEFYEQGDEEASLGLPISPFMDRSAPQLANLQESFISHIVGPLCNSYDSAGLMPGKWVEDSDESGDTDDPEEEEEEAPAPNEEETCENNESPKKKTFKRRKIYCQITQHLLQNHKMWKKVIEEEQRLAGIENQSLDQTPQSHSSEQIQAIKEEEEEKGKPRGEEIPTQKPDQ
Chain of 5-hydroxytryptamine receptor 2B (P41595 whole entry): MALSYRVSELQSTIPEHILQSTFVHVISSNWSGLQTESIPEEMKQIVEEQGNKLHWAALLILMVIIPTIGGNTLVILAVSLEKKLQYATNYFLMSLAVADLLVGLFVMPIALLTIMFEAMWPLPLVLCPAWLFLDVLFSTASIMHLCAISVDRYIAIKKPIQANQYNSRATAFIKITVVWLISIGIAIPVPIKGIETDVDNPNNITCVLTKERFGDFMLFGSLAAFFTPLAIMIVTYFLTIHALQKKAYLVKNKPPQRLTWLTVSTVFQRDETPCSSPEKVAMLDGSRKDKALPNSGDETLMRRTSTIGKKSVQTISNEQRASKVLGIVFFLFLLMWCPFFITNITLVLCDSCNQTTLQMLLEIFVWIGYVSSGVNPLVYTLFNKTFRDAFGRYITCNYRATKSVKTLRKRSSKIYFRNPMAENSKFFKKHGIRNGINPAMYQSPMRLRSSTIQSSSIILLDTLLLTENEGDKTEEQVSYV

C[N+]1(C)CCC(=C(c2ccccc2)c2ccccc2)CC1
AC50 [1]: 0.187 µM | AC50 [2]: > 30 µM

C[N+](C)(C)CCOP(=O)([O-])OC[C@H](O)CO
AC50 [1]: > 30 µM | AC50 [3]: > 30 µM

CN(C)Cc1nnc2n1-c1ccc(Cl)cc1C(c1ccccc1)=NC2 [ADINAZOLAM]
AC50 [1]: > 30 µM | AC50 [3]: > 10 µM | AC50 [2]: > 10 µM

CN(C)C/C=C/C(=O)Nc1cc2c(Nc3ccc(F)c(Cl)c3)ncnc2cc1O[C@H]1CCOC1 [AFATINIB]
AC50 [3]: > 30 µM | AC50 [2]: > 30 µM

Cc1ccccc1-n1c(CF)nc2ccc(N)cc2c1=O [AFLOQUALONE]
AC50 [1]: > 30 µM | AC50 [3]: > 10 µM | AC50 [2]: > 30 µM

CCC1(c2ccc(N)cc2)CCC(=O)NC1=O (configuration not stated) [AMINOGLUTETHIMIDE]
AC50 [1]: > 30 µM | AC50 [3]: > 30 µM

CC1=C(C(=O)OC(C)C)C(c2cccc([N+](=O)[O-])c2)C(C(=O)OC2CN(C(c3ccccc3)c3ccccc3)C2)=C(N)N1 (configuration not stated) [AZELNIDIPINE]
AC50 [1]: > 30 µM | AC50 [3]: > 30 µM | AC50 [2]: > 30 µM

CC(Cc1cccc(C(F)(F)F)c1)NCCOC(=O)c1ccccc1 (configuration not stated) [BENFLUOREX]
AC50 [1]: 5.6 µM | AC50 [2]: > 30 µM

CCOC(=O)c1ccc(N)cc1 [BENZOCAINE]
AC50 [1]: > 30 µM | AC50 [3]: > 10 µM

CC(C)(Oc1ccc(CCNC(=O)c2ccc(Cl)cc2)cc1)C(=O)O [BEZAFIBRATE]
AC50 [1]: > 30 µM | AC50 [3]: > 10 µM | AC50 [2]: > 10 µM

O=C(O)COCCN1CCN(C(c2ccccc2)c2ccc(Cl)cc2)CC1 (configuration not stated) [CETIRIZINE]
AC50 [4]: > 30 µM | AC50 [5]: > 30 µM | AC50 [6]: > 30 µM | AC50 [7]: > 30 µM | AC50 [8]: > 30 µM | AC50 [2]: > 10 µM | AC50 [9]: > 30 µM | AC50 [10]: > 30 µM | AC50 [11]: > 30 µM | AC50 [12]: > 30 µM

C/C=C(/C(=C/C)c1ccc(O)cc1)c1ccc(O)cc1 [DIENESTROL]
AC50 [1]: > 30 µM | AC50 [3]: > 10 µM | AC50 [2]: > 10 µM

CN[C@]1(c2ccccc2Cl)CCCCC1=O [ESKETAMINE]
AC50 [1]: > 30 µM | AC50 [3]: > 30 µM | AC50 [2]: > 30 µM

COc1ccc([C@@H]2CC(=O)c3c(O)cc(O)cc3O2)cc1O [HESPERETIN]
AC50 [1]: > 30 µM | AC50 [3]: > 10 µM | AC50 [2]: > 10 µM

CNCCc1ccc(OC(=O)C(C)C)c(OC(=O)C(C)C)c1 [IBOPAMINE]
AC50 [1]: > 30 µM | AC50 [3]: > 30 µM | AC50 [2]: > 30 µM

CN(C)CCCN1c2ccccc2CCc2ccccc21 [IMIPRAMINE]
AC50 [3]: > 10 µM | AC50 [2]: > 10 µM

CCOC(=O)C1=C(C)NC(C)=C(C(=O)OCC)C1c1ccccc1/C=C/C(=O)OC(C)(C)C [LACIDIPINE]
AC50 [1]: 17.8 µM | AC50 [3]: > 30 µM

CCC[C@@H]1C[C@@H](C(=O)N[C@@H]([C@H]2O[C@H](SC)[C@H](O)[C@@H](O)[C@H]2O)[C@@H](C)O)N(C)C1 [LINCOMYCIN]
AC50 [1]: > 30 µM | AC50 [3]: > 10 µM | AC50 [2]: > 10 µM

COC(=O)C1=C(C)NC(C)=C(C(=O)OCCN2CCN(C(c3ccccc3)c3ccccc3)CC2)C1c1cccc([N+](=O)[O-])c1 (configuration not stated) [MANIDIPINE 6300]
AC50 [1]: 0.82 µM | AC50 [3]: > 30 µM | AC50 [2]: > 30 µM

C=C1c2cccc(O)c2C(=O)C2=C(O)[C@]3(O)C(=O)C(C(N)=O)=C(O)[C@@H](N(C)C)[C@@H]3[C@@H](O)[C@H]12 [METHACYCLINE]
AC50 [1]: > 30 µM | AC50 [3]: > 10 µM | AC50 [2]: > 30 µM

CN(Cc1cnc2nc(N)nc(N)c2n1)c1ccc(C(=O)N[C@@H](CCC(=O)O)C(=O)O)cc1 [METHOTREXATE]
AC50 [1]: > 30 µM | AC50 [3]: > 10 µM | AC50 [2]: > 30 µM

Cc1ccccc1N1C(=O)c2cc(S(N)(=O)=O)c(Cl)cc2NC1C (configuration not stated) [METOLAZONE]
AC50 [1]: > 30 µM | AC50 [3]: > 10 µM

O=C(O)c1cccnc1Nc1cccc(C(F)(F)F)c1 [NIFLUMIC ACID]
AC50 [1]: > 30 µM | AC50 [3]: > 10 µM

O=C1c2cccc3c2[C@H](CCC3)CN1[C@@H]1CN2CCC1CC2 [PALONOSETRON]
AC50 [1]: 0.89 µM | AC50 [3]: > 30 µM | AC50 [2]: > 30 µM

OC[C@H]1O[C@@H](n2cnc3c2NC=NC[C@H]3O)C[C@@H]1O [PENTOSTATIN]
AC50 [1]: > 30 µM | AC50 [3]: > 30 µM | AC50 [2]: > 30 µM

NNCCc1ccccc1 [PHENELZINE]
AC50 [4]: 25.4 µM | AC50 [6]: > 30 µM | AC50 [7]: > 30 µM | AC50 [1]: > 30 µM | AC50 [13]: > 30 µM | AC50 [8]: > 30 µM | AC50 [14]: > 30 µM | AC50 [15]: > 30 µM | AC50 [10]: > 30 µM | AC50 [11]: > 30 µM | AC50 [12]: > 30 µM | AC50 [16]: > 30 µM

O=C1c2ccccc2C(=O)C1c1ccccc1 [PHENINDIONE]
AC50 [1]: > 30 µM | AC50 [3]: > 10 µM | AC50 [2]: > 10 µM

Cc1cccc(C)c1NC(=O)CC12CCCN1CCC2 [PILSICAINIDE]
AC50 [3]: > 30 µM | AC50 [2]: > 30 µM

CC(C)c1cccc(C(C)C)c1O [PROPOFOL]
AC50 [3]: > 30 µM

CN[C@@H](C)[C@@H](O)c1ccccc1 [PSEUDOEPHEDRINE]
AC50 [1]: > 30 µM | AC50 [3]: > 10 µM | AC50 [2]: > 10 µM

CCCN1CC(NS(=O)(=O)N(CC)CC)CC2Cc3c(O)cccc3CC21 (configuration not stated) [QUINAGOLIDE]
AC50 [1]: 6.5 µM | AC50 [3]: > 30 µM | AC50 [2]: > 30 µM

C[C@]12CCC(=O)C[C@@H]1CC[C@@H]1[C@@H]2CC[C@]2(C)[C@@H](O)CC[C@@H]12 [STANOLONE]
AC50 [1]: > 30 µM | AC50 [3]: > 30 µM

O=C1OC(OC(=O)c2cccnc2Nc2cccc(C(F)(F)F)c2)c2ccccc21 (configuration not stated) [TALNIFLUMATE]
AC50 [1]: > 30 µM | AC50 [3]: > 30 µM | AC50 [2]: > 30 µM

C[C@]12C=CC(=O)C=C1CC[C@@H]1[C@@H]2CC[C@]2(C)OC(=O)CC[C@@H]12 [TESTOLACTONE]
AC50 [1]: > 30 µM | AC50 [3]: > 10 µM | AC50 [2]: > 10 µM

CCOC(=O)c1c(CSc2ccccc2)n(C)c2cc(Br)c(O)c(CN(C)C)c12 [UMIFENOVIR]
AC50 [1]: 0.61 µM | AC50 [3]: > 30 µM | AC50 [2]: > 30 µM
